Assays:
[1] = Example 1.3: feeding experiments, TLA composition via drinking water, feed free from medical zinc, weight gain and diarrhoea; type: in vivo, piglets (day-one weaned); conditions: comparison of AWG ratio with Example 1.2, light diarrhoea environment
Description: In Example 1.3, a composition comprising [COMPOUND LEFT OUT] lactic acid, [COMPOUND LEFT OUT] acetic acid and tannic acid was administered to piglets in combination with a feed free from medical zinc.
A batch solution was prepared using [COMPOUND LEFT OUT] lactic acid (80% lactic acid, Frederiksen, DK); acetic acid (5%, Organic Vinegar, Netto, DK) and tannic acid (Sigma) corresponding to a content of 10% Tannic acid, 69% lactic acid and 1.4% acetic acid. This composition is hereafter named TLA stock (tannic acid, lactic acid and acetic acid stock).
Two independent one-week feeding experiments were carried out with day-one weaned piglets (Example 1.3.1 and 1.3.2).
The concentrated TLA stock feed additive was prepared and used to mix with the standard setup for drinking water used by the weaned pigs at the farm. The dry feed is as described above.
The feed received by both the test and control groups was free from medical zinc. In each experiment, two test groups were administered the TLA composition in drinking water while two control groups received standard tap water. The total weight of all piglets in each group was measured at the initiation of the experiment (Day 0, “Start total weight”) and after one (Day 7) and two weeks (Day 14) as indicated (“End total weight”). […]
Following one-week administration, the total weight gain of each group was monitored. […]

[2] = Solubility in concentrated stock solution; type: physicochemical; conditions: concentrated stock solution / acidic solutions
Text: A concentrated stock solution is required to facilitate administration through drinking water.

[3] = system: E. coli cells producing F4 fimbriae; test: Example 4.1: E. coli agglutination test; type: cell-based; conditions: concentrations identical to Example 3.1; OD450 1.5 cells, 5 μL + 5 μL on glass plate
Description: The effect of three different compositions on E. coli agglutination were tested: (i) lactic acid and acetic acid, (ii) tannic acid, (iii) lactic acid, acetic acid and tannic acid.
A recombinant E. coli strain constitutively expressing F4 fimbriae was washed three times with 0.9% sodium chloride, and cells corresponding to an optical density (OD450) of 1.5 were resuspended in 50 μL of 0.9% sodium chloride.
5 μL of the cell suspension was mixed with 5 μL of either (i) lactic acid and acetic acid, (ii) tannic acid or (iii) lactic acid, acetic acid and tannic acid on the surface of a glass plate.
The concentration of each of these components were identical to those delivered to the pigs in Example 3.1.

Row | Compound | Contribution of tannic acid to weight increase [1] | Solubility [2] | E. coli agglutination [3]
1 | O=C(OC[C@H]1O[C@@H](OC(=O)c2cc(O)c(O)c(OC(=O)c3cc(O)c(O)c(O)c3)c2)[C@H](OC(=O)c2cc(O)c(O)c(OC(=O)c3cc(O)c(O)c(O)c3)c2)[C@@H](OC(=O)c2cc(O)c(O)c(OC(=O)c3cc(O)c(O)c(O)c3)c2)[C@@H]1OC(=O)c1cc(O)c(O)c(OC(=O)c2cc(O)c(O)c(O)c2)c1)c1cc(O)c(O)c(OC(=O)c2cc(O)c(O)c(O)c2)c1 [tannic acid, 1,2,3,4,6-penta-O-{3,4-dihydroxy-5-[(3,4,5-trihydroxybenzoyl)oxy]benzoyl}-D-glucopyranose] | additional effect of tannic acid in the increase in weight | high solubility in acidic solutions | does not show any significant aggregation of the cells
2 | albumin-tannate [reference compound] | – | problems with solubility, resulting in non-homogeneous solutions comprising a precipitate | –
